Test results: patent US20230106174A1, “RAS INHIBITORS” (Revolution Medicines, Inc., priority 2021, published 2023)
Blank lines part the entries; values can stand above or below the compound they belong to.

What was measured:
SW1573 = details: Canon et al., Nature 575:217-223 (2019); cited from earlier work
K-Ras G13C = K-Ras G13C (Homo sapiens, UniProt P01116+P62937, G13C); experiment: Raf-Ras (FRET or MOA) binding assay: disruption of BRAF RBD interaction with K-Ras G13C in presence of Cyclophilin A; assay type: biochemical; details: read-out: IC50 in the Raf-Ras (FRET or MOA) binding assay re: K-Ras G13C
Description: As used herein, the term “linker” refers to a divalent organic moiety connecting a first moiety (e.g., a macrocyclic moiety) to a second moiety (e.g., a cross-linking group). […] Compound is present in plate wells as a 10-point 3-fold dilution series starting at a final concentration of 30 μM. After incubation at 25° C. for 3 hours, a mixture of Anti-His Eu-W1024 and anti-GST allophycocyanin is then added to assay sample wells at final concentrations of 10 nM and 50 nM, respectively, and the reaction incubated for an additional 1.5 hours. TR-FRET signal is read on a microplate reader (Ex 320 nm, Em 665/615 nm). Compounds that facilitate disruption of a Ras:RAF complex are identified as those eliciting a decrease in the TR-FRET ratio relative to DMSO control wells.
Disruption of B-Raf Ras-Binding Domain (BRAF RBD) Interaction with K-Ras by Compounds of the Invention (Also Called a FRET Assay or an MOA Assay)
Note—The following protocol describes a procedure for monitoring disruption of K-Ras G12C (GMP-PNP) binding to BRAF^RBD by a compound of the invention. This protocol may also be executed substituting other Ras proteins or nucleotides.
The purpose of this biochemical assay was to measure the ability of test compounds to facilitate ternary complex formation between a nucleotide-loaded K-Ras isoform and Cyclophilin A; the resulting ternary complex disrupts binding to a BRAF^RBD Construct, inhibiting K-Ras signaling through a RAF effector. Data was reported as IC50 values.
In assay buffer containing 25 mM HEPES pH 7.3, 0.002% Tween20, 0.1% BSA, 100 mM NaCl and 5 mM MgCl2, tagless Cyclophilin A, His6-K-Ras-GMPPNP, and GST-BRAF^RBD were combined in a 384-well assay plate at final concentrations of 25 μM, 12.5 nM and 50 nM, respectively. Compound was present in plate wells as a 10-point 3-fold dilution series starting at a final concentration of 30 μM. […] TR-FRET signal was read on a microplate reader (Ex 320 nm, Em 665/615 nm). […]

[1] = ester bond; 18-membered ring; EDCI/HOBT/DIPEA; DCM; 6.8 mM
NCI-H358 (K-Ras G12C) = experiment: CellTiter-Glo cell viability assay, 5-day treatment, NCI-H358; assay type: cell-based; details: Homo sapiens, NCI-H358, 120 h
Text: Determination of Cell Viability in RAS Mutant Cancer Cell Lines
Protocol: CellTiter-Glo® Cell Viability Assay
Note—The following protocol describes a procedure for monitoring cell viability of K-Ras mutant cancer cell lines in response to a compound of the invention. Other RAS isoforms may be employed, though the number of cells to be seeded will vary based on cell line used.
The purpose of this cellular assay was to determine the effects of test compounds on the proliferation of three human cancer cell lines (NCI-H358 (K-Ras G12C), AsPC-1 (K-Ras G12D), and Capan-1 (K-Ras G12V)) over a 5-day treatment period by quantifying the amount of ATP present at endpoint using the CellTiter-Glo® 2.0 Reagent (Promega).
Cells were seeded at 250 cells/well in 40 μL of growth medium in 384-well assay plates and incubated overnight in a humidified atmosphere of 5% CO2 at 37° C. On the day of the assay, 10 mM stock solutions of test compounds were first diluted into 3 mM solutions with 100% DMSO. Well-mixed compound solutions (15 μL) were transferred to the next wells containing 30 μL of 100% DMSO, and repeated until a 9-concentration 3-fold serial dilution was made (starting assay concentration of 10 μM). Test compounds (132.5 nL) were directly dispensed into the assay plates containing cells. The plates were shaken for 15 seconds at 300 rpm, centrifuged, and incubated in a humidified atmosphere of 5% CO2 at 37° C. for 5 days. On day 5, assay plates and their contents were equilibrated to room temperature for approximately 30 minutes. CellTiter-Glo® 2.0 Reagent (25 μL) was added, and plate contents were mixed for 2 minutes on an orbital shaker before incubation at room temperature for 10 minutes. Luminescence was measured using the PerkinElmer Enspire. Data were normalized by the following: (Sample signal/Avg. DMSO)*100. The data were fit using a four-parameter logistic fit.

K-Ras G12C = biological target: T1, K-Ras G12C (Homo sapiens, UniProt P01116+P62937, G12C); experiment: pERK potency assay in NCI-H358 cells (AlphaLISA SureFire or In-Cell Western); assay type: cell-based; details: 4 hours incubation
T1 construct: endogenous in cells; host or cells: NCI-H358
Description: The purpose of this assay was to measure the ability of test compounds to inhibit K-Ras in cells. […] This procedure measures a decrease in cellular pERK in response to test compounds. The procedure described below in NCI-H358 cells is applicable to K-Ras G12C. […]
NCI-H358 cells were grown and maintained using media and procedures recommended by the ATCC. On the day prior to compound addition, cells were plated in 384-well cell culture plates (40 μl/well) and grown overnight in a 37° C., 5% CO2 incubator. Test compounds were prepared in 10, 3-fold dilutions in DMSO, with a high concentration of 10 mM. On the day of assay, 40 nL of test compound was added to each well of cell culture plate using an Echo550 liquid handler (LabCyte®). Concentrations of test compound were tested in duplicate. After compound addition, cells were incubated 4 hours at 37° C., 5% CO2. Following incubation, culture medium was removed and cells were washed once with phosphate buffered saline.
In some experiments, cellular pERK level was determined using the AlphaLISA SureFire Ultra p-ERK1/2 Assay Kit (PerkinElmer). Cells were lysed in 25 μL lysis buffer, with shaking at 600 RPM at room temperature. Lysate (10 μL) was transferred to a 384-well Opti-plate (PerkinElmer) and 5 μL acceptor mix was added. After a 2-hour incubation in the dark, 5 μL donor mix was added, the plate was sealed, and incubated 2 hours at room temperature. Signal was read on an Envision plate reader (PerkinElmer) using standard AlphaLISA settings. Analysis of raw data was carried out in Excel (Microsoft) and Prism (GraphPad). Signal was plotted vs. the decadal logarithm of compound concentration, and IC50 was determined by fitting a 4-parameter sigmoidal concentration response model.
In other experiments, cellular pERK was determined by In-Cell Western. Following compound treatment, cells were washed twice with 200 μL tris buffered saline (TBS) and fixed for 15 minutes with 150 μL 4% paraformaldehyde in TBS. Fixed cells were washed 4 times for 5 minutes with TBS containing 0.1% Triton X-100 (TBST) and then blocked with 100 μL Odyssey blocking buffer (LI-COR) for 60 minutes at room temperature. […] Cells were washed 4 times for 5 minutes with TBST. Secondary antibody (IR-800CW rabbit, LI-COR, diluted 1:800) and DNA stain DRAQ5 (LI-COR, diluted 1:2000) were added and incubated 1-2 hours at room temperature. Cells were washed 4 times for 5 minutes with TBST. Plates were scanned on a Li—COR Odyssey CLx Imager. Analysis of raw data was carried out in Excel (Microsoft) and Prism (GraphPad). Signal was plotted vs. the decadal logarithm of compound concentration, and IC50 was determined by fitting a 4-parameter sigmoidal concentration response model.

K-Ras G13C, sequence (P01116 1-188 isoform P01116-2 G13C): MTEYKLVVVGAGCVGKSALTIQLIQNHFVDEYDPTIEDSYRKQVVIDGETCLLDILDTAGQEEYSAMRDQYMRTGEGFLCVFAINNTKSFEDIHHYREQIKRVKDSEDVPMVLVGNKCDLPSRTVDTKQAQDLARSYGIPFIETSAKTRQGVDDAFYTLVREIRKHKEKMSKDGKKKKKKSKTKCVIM
K-Ras G13C, sequence (P62937 whole entry): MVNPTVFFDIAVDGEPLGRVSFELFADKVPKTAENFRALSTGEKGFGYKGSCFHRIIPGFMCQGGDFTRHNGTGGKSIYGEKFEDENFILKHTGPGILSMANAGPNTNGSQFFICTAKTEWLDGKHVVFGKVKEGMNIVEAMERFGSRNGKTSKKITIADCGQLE
T1 sequence (P01116 1-188 isoform P01116-2 G12C): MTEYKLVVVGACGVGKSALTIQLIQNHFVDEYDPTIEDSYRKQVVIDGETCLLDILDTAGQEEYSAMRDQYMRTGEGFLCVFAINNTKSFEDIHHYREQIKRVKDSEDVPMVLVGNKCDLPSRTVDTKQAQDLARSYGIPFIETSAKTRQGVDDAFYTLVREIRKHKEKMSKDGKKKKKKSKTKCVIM
T1 sequence (P62937 whole entry): as the sequence (P62937 whole entry) above

Compound: C=CC(=O)N1CCN(c2nc(=O)n(-c3c(C)ccnc3C(C)C)c3nc(-c4c(O)cccc4F)c(F)cc23)[C@@H](C)C1 [AMG510]
sensitivity of cell line SW1573 (SW1573): insensitive

IC50 (K-Ras G13C): > 1500 nM
Compound: CCn1c(-c2cccnc2[C@H](C)OC)c2c3cc(ccc31)N1CCS[C@@H](C[C@H](NC(=O)[C@@H](COC3CN(C(=O)C#CC(C)(C)N(C)C)C3)N(C)C)C(=O)N3CCC[C@H](N3)C(=O)OCC(C)(C)C2)C1 (atropisomer, axis not shown) [Example A171]

IC50 (K-Ras G13C): > 1500 nM
Compound: CCn1c(-c2cccnc2[C@H](C)OC)c2c3cc(ccc31)N1CCS[C@@H](C[C@H](NC(=O)[C@@H](COC3CN(C(=O)C#CC(C)(C)N(C)C)C3)C(C)C)C(=O)N3CCC[C@H](N3)C(=O)OCC(C)(C)C2)C1 (atropisomer, axis not shown) [Example A175]

IC50 (K-Ras G13C): > 1500 nM
Compound: CCn1c(-c2cccnc2[C@H](C)OC)c2c3cc(ccc31)-c1cccc(c1)C[C@H](NC(=O)[C@@H](COC1CN(C(=O)C#CC(C)(C)N(C)C)C1)N(C)C)C(=O)N1CCC[C@H](N1)C(=O)OCC(C)(C)C2 (atropisomer, axis not shown) [Example A169]

Compound: tert-butyl ((6^3S,4S,Z)-1^1-ethyl-1^2-(2-((S)-1-methoxyethyl)pyridin-3-yl)-10,10-dimethyl-5,7-dioxo-6^1,6^2,6^3,6^4,6^5,6^6-hexahydro-1^1H-8-oxa-2(5,3)-oxadiazola-1(5,3)-indola-6(1,3)-pyridazinacycloundecaphane-4-yl)carbamate
ring closure, isolated yield [1]: 18%

IC50 (NCI-H358 (K-Ras G12C)): > 1000 nM
IC50 (K-Ras G12C): > 1000 nM
Compound: C=CC(=O)N1CCOC2(CCN(C(=O)N(C)[C@H](C(=O)N[C@H]3Cc4nccc(n4)-c4ccc5c(c4)c(c(-c4cccnc4[C@H](C)OC)n5CC)CC(C)(C)COC(=O)[C@@H]4CCCN(N4)C3=O)C(C)C)CC2)C1 (atropisomer, axis not shown) [Example A191]

IC50 (NCI-H358 (K-Ras G12C)): > 1000 nM
IC50 (K-Ras G12C): > 1000 nM
Compound: C=CC(=O)N1CCN(CC)C2(CCN(C(=O)N(C)[C@H](C(=O)N[C@H]3C[C@H]4CN(CCO4)c4ccc5c(c4)c(c(-c4cccnc4[C@H](C)OC)n5CC)CC(C)(C)COC(=O)[C@@H]4CCCN(N4)C3=O)C(C)C)CC2)C1 (atropisomer, axis not shown) [Example A38]
